Measurements: PubChem BioAssay (NCI)
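Grown in 96-well plates, cells were treated for 48 hours with each compound at five concentrations. Insufficient inhibition: endpoint recorded as highest concentration tested. TGI is the concentration that stops growth completely.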

Key:
Experiment in all cases: NCI-60 cell line screen, 48 h
HCT-15 colon = test system: HCT-15 colon
MALME-3M melanoma = test system: MALME-3M melanoma
PC-3 prostate = test system: PC-3 prostate
NCI-H460 lung = test system: NCI-H460 lung
M14 melanoma = test system: M14 melanoma
SF-295 CNS = test system: SF-295 CNS
HL-60(TB) leukemia = test system: HL-60(TB) leukemia
HOP-62 NSCLC = test system: HOP-62 NSCLC
MDA-N = test system: MDA-N
CAKI-1 renal = test system: CAKI-1 renal
K-562 leukemia = test system: K-562 leukemia
A549 NSCLC = test system: A549 NSCLC
EKVX NSCLC = test system: EKVX NSCLC
HCC-2998 colon = test system: HCC-2998 colon
LOX IMVI melanoma = test system: LOX IMVI melanoma
COLO 205 colon = test system: COLO 205 colon
HT29 colon = test system: HT29 colon
NCI-H522 lung = test system: NCI-H522 lung
786-0 renal = test system: 786-0 renal
KM12 colon = test system: KM12 colon
ACHN renal = test system: ACHN renal
SN12C renal = test system: SN12C renal
SF-268 CNS = test system: SF-268 CNS
SNB-75 CNS = test system: SNB-75 CNS
T-47D breast = test system: T-47D breast
UACC-257 melanoma = test system: UACC-257 melanoma
SK-MEL-28 melanoma = test system: SK-MEL-28 melanoma
SK-OV-3 ovarian = test system: SK-OV-3 ovarian
HS 578T breast = test system: HS 578T breast
OVCAR-5 ovarian = test system: OVCAR-5 ovarian
MDA-MB-231 breast = test system: MDA-MB-231 breast
BT-549 breast = test system: BT-549 breast
UO-31 renal = test system: UO-31 renal
SNB-19 CNS = test system: SNB-19 CNS
OVCAR-4 ovarian = test system: OVCAR-4 ovarian
SW-620 colon = test system: SW-620 colon
TK-10 renal = test system: TK-10 renal
OVCAR-8 ovarian = test system: OVCAR-8 ovarian
SR leukemia = test system: SR leukemia
NCI-H226 lung = test system: NCI-H226 lung
UACC-62 melanoma = test system: UACC-62 melanoma
DU-145 prostate = test system: DU-145 prostate
HCT-116 colon = test system: HCT-116 colon
RXF 393 renal = test system: RXF 393 renal
SK-MEL-5 melanoma = test system: SK-MEL-5 melanoma
MOLT-4 leukemia = test system: MOLT-4 leukemia
U251 CNS = test system: U251 CNS
HOP-92 NSCLC = test system: HOP-92 NSCLC
CCRF-CEM leukemia = test system: CCRF-CEM leukemia
OVCAR-3 ovarian = test system: OVCAR-3 ovarian
MCF7 breast = test system: MCF7 breast
SF-539 CNS = test system: SF-539 CNS
MDA-MB-435 = test system: MDA-MB-435
A498 renal = test system: A498 renal
RPMI-8226 leukemia = test system: RPMI-8226 leukemia
IGROV1 ovarian = test system: IGROV1 ovarian
SK-MEL-2 melanoma = test system: SK-MEL-2 melanoma
NCI-H23 lung = test system: NCI-H23 lung
NCI/ADR-RES ovarian = test system: NCI/ADR-RES ovarian

`CC(C)(C)OCC1NC(=O)[C@@H]2Cc3c([nH]c4ccccc34)C(c3ccccc3)N2C1=O` (some centres undefined) was tested, and the TGI (HCT-15 colon) was > 50 µM, the TGI (MALME-3M melanoma) was > 50 µM and the TGI (PC-3 prostate) was > 50 µM. The TGI (NCI-H460 lung) was > 50 µM, the TGI (M14 melanoma) was > 50 µM and the TGI (SF-295 CNS) was > 50 µM. For the same compound, the TGI (HL-60(TB) leukemia) was > 50 µM, the TGI (HOP-62 NSCLC) was > 50 µM and the TGI (MDA-N) was > 50 µM. The TGI (CAKI-1 renal) was > 50 µM, the TGI (K-562 leukemia) was > 50 µM and the TGI (A549 NSCLC) was > 50 µM. For the same compound, the TGI (EKVX NSCLC) was > 50 µM, the TGI (HCC-2998 colon) was > 50 µM and the TGI (LOX IMVI melanoma) was > 50 µM. The TGI (COLO 205 colon) was > 50 µM, the TGI (HT29 colon) was > 50 µM and the TGI (NCI-H522 lung) was > 50 µM. For the same compound, the TGI (786-0 renal) was > 50 µM, the TGI (KM12 colon) was > 50 µM and the TGI (ACHN renal) was > 50 µM. For the same compound, the TGI (SN12C renal) was > 50 µM, the TGI (SF-268 CNS) was > 50 µM and the TGI (SNB-75 CNS) was > 50 µM. The TGI (T-47D breast) was > 50 µM, the TGI (UACC-257 melanoma) was > 50 µM and the TGI (SK-MEL-28 melanoma) was > 50 µM. The TGI (SK-OV-3 ovarian) was > 50 µM, the TGI (HS 578T breast) was > 50 µM and the TGI (OVCAR-5 ovarian) was > 50 µM. The TGI (MDA-MB-231 breast) was > 50 µM, the TGI (BT-549 breast) was > 50 µM and the TGI (UO-31 renal) was > 50 µM. For the same compound, the TGI (SNB-19 CNS) was > 50 µM, the TGI (OVCAR-4 ovarian) was > 50 µM and the TGI (SW-620 colon) was > 50 µM. For the same compound, the TGI (TK-10 renal) was > 50 µM, the TGI (OVCAR-8 ovarian) was > 50 µM and the TGI (SR leukemia) was > 33 µM. For the same compound, the TGI (NCI-H226 lung) was > 50 µM, the TGI (UACC-62 melanoma) was > 50 µM and the TGI (DU-145 prostate) was > 50 µM. For the same compound, the TGI (HCT-116 colon) was > 50 µM, the TGI (RXF 393 renal) was > 50 µM and the TGI (SK-MEL-5 melanoma) was > 50 µM. The TGI (MOLT-4 leukemia) was > 32.7 µM, the TGI (U251 CNS) was > 50 µM and the TGI (HOP-92 NSCLC) was > 50 µM. For the same compound, the TGI (CCRF-CEM leukemia) was > 50 µM, the TGI (OVCAR-3 ovarian) was > 50 µM and the TGI (MCF7 breast) was > 50 µM. For the same compound, the TGI (SF-539 CNS) was > 50 µM, the TGI (MDA-MB-435) was > 50 µM and the TGI (A498 renal) was > 50 µM. The TGI (RPMI-8226 leukemia) was > 33.7 µM, the TGI (IGROV1 ovarian) was > 50 µM and the TGI (SK-MEL-2 melanoma) was > 50 µM. The TGI (NCI-H23 lung) was > 50 µM and the TGI (NCI/ADR-RES ovarian) was > 50 µM.
